Data taken from patent publication US8916702B2 (priority 2012, dated 2014).

Each compound was assayed on HCV pseudoparticles (genotype 1a HCV E1 and E2 envelope, H77C isolate) (assay: microbe, parasite or virus in culture). Settings: Hepatitis C virus, Huh-7, 48 h, HCV pseudoparticle infection of Huh7 cells, luciferase 2 days after infection; average of duplicates.
Type: cell-based
With `CC(=O)c1ccc(NC(=O)C(=O)NCC(C)(C)CNC(=O)c2ccc(Nc3nc(NC4(c5ccc(Cl)cc5)CC4)nc(OCC(F)(F)F)n3)cc2)cc1` [Compound 1603] the EC50 was 0.04 nM.

Same assay, conditions: Hepatitis C virus, Huh-7, 48 h, HCV pseudoparticles (genotype 1a, H77C) in Huh7 cells; average of duplicate; luciferase 2 days after infection
Compound `CC(C)(CNC(=O)C(N)=O)CNC(=O)c1ccc(Nc2nc(NC3(c4ccc(Cl)cc4)CC3)nc(OCC(F)(F)F)n2)cc1F` [Compound 3388, N^1-(3-(4-((4-((1-(4-chlorophenyl)cyclopropyl)amino)-6-(2,2,2-trifluoroethoxy)-1,3,5-triazin-2-yl)amino)-2-fluorobenzamido)-2,2-dimethylpropyl)oxalamide] has an EC50 of 0.013 nM.
`Cn1ccnc1NC(=O)C(=O)NCC(C)(C)CNC(=O)c1ccc(Nc2nc(NC3(c4ccc(Cl)cc4)CC3)nc(OCC(F)(F)F)n2)cc1` [Compound 3379] was tested, and the EC50 was 0.14 nM.
`COC(=O)[C@H](CCNC(=O)C(=O)Nc1ccc(N2CC(C)OC(C)C2)cc1)NC(=O)c1ccc(Nc2nc(NC3(c4ccc(Cl)cc4)CC3)nc(OCC(F)(F)F)n2)cc1` (stereo partly shown) [Compound 3121] was tested, and the EC50 was 3.39 nM.
In the case of `O=C(NCCCNC(=O)c1ccc(Nc2nc(NC3(c4ccc(Cl)cc4)CC3)nc(OCC(F)(F)F)n2)cc1)C(=O)Nc1cccc(F)c1` [Compound 3349], the EC50 is reported as 0.041 nM.

Same assay, conditions: Hepatitis C virus, Huh-7, 48 h, HCV pseudoparticles, Huh7 cells, luciferase 2 days after infection; average of duplicates
Work on `Cc1ccc(NC(=O)C(=O)NCC(C)(C)CNC(=O)c2ccc(Nc3nc(NC4(c5ccc(Cl)cc5)CC4)nc(OCC(F)(F)F)n3)cc2F)c(Cl)c1` [Compound 3664] yielded an EC50 of 0.038 nM.

Same assay, conditions: Hepatitis C virus, Huh-7, 48 h, read-out: Activity (EC50 class), HCV pseudoparticle infection of Huh7 cells, luciferase 2 days after infection; EC50 expressed as class A/B
`O=C(NCC[C@H](NC(=O)c1ccc(Nc2nc(NC3(c4ccc(Cl)cc4)CC3)nc(OCC(F)(F)F)n2)cc1)C(=O)O)C(=O)NCC1(c2ccccc2)CC1` [Compound 1421] was tested, and the EC50 was 0.01 to 10 nM.
Compound `COC(=O)[C@H](CCNC(=O)C(=O)NCC1CCCOC1)NC(=O)c1ccc(Nc2nc(NC3(c4ccc(Cl)cc4)CC3)nc(OCC(F)(F)F)n2)cc1` (stereo partly shown) [Compound 1198] has an EC50 of 0.01 to 10 nM.
Compound `O=C(NCC[C@H](NC(=O)c1ccc(Nc2nc(NC3(c4ccc(Cl)cc4)CC3)nc(OCC(F)(F)F)n2)cc1)C(=O)O)C(=O)NC1CCCCC1O` (stereo partly shown) [Compound 1113] has an EC50 of 0.01 to 10 nM.
`CC1CCCC(NC(=O)C(=O)NC[C@H](NC(=O)c2ccc(Nc3nc(NC4(c5ccc(Cl)cc5)CC4)nc(OCC(F)(F)F)n3)cc2)C(=O)O)C1` (stereo partly shown) [Compound 1087] was tested, and the EC50 was 0.01 to 10 nM.
`CC(C)(CNC(=O)C(=O)Nc1ccc(-c2ccc(C(=O)O)cc2)cc1)CNC(=O)c1ccc(Nc2nc(NC3(c4ccc(Cl)cc4)CC3)nc(OCC(F)(F)F)n2)cc1` [Compound 1542] was tested, and the EC50 was 0.01 to 10 nM.
Compound `CN(C(=O)C(=O)NCC(C)(C)CNC(=O)c1ccc(Nc2nc(NC3(c4ccc(Cl)cc4)CC3)nc(OCC(F)(F)F)n2)cc1)c1cccc(F)c1` [Compound 1578] has an EC50 of 0.01 to 10 nM.
`CC(C)(CNC(=O)C(=O)Nc1ccc2c(c1)oc1ccccc12)CNC(=O)c1ccc(Nc2nc(NC3(c4ccc(Cl)cc4)CC3)nc(OCC(F)(F)F)n2)cc1` [Compound 1577] gave an EC50 of 0.01 to 10 nM.
With `CC(C)(CNC(=O)C(=O)Nc1ccc2ncoc2c1)CNC(=O)c1ccc(Nc2nc(NC3(c4ccc(Cl)cc4)CC3)nc(OCC(F)(F)F)n2)cc1` [Compound 1567] the EC50 was 0.01 to 10 nM.
In the case of `COC(=O)[C@@H](CCNC(=O)C(O)NCC1CC1c1cccc(F)c1)NC(=O)c1ccc(Nc2nc(NC3(c4ccc(Cl)cc4)CC3)nc(OCC(F)(F)F)n2)cc1` (stereo partly shown) [Compound 1376], the EC50 is reported as 0.01 to 10 nM.
`O=C(NCC[C@H](NC(=O)c1ccc(Nc2nc(NC3(c4ccc(Cl)cc4)CC3)nc(OCC(F)(F)F)n2)cc1)C(=O)O)C(=O)NCC1CCOCC1` [Compound 1215] showed an EC50 of 0.01 to 10 nM.
In the case of `CC(=O)c1ccc(NC(=O)C(=O)NCC(C)(C)CNC(=O)c2ccc(Nc3nc(NC4(c5ccc(Cl)cc5)CC4)nc(OCC(F)(F)F)n3)cc2)cc1` [Compound 1603], the EC50 is reported as 0.01 to 10 nM.
With `CCOCC1(CNC(=O)C(=O)NCC[C@@H](NC(=O)c2ccc(Nc3nc(NC4(c5ccc(Cl)cc5)CC4)nc(OCC(F)(F)F)n3)cc2)C(=O)OC)CC1` [Compound 1379] the EC50 was 0.01 to 10 nM.
For `COC(=O)[C@H](CCNC(=O)C(=O)N[C@@H]1C[C@@H]2CC[C@H]1C2)NC(=O)c1ccc(Nc2nc(NC3(c4ccc(Cl)cc4)CC3)nc(OCC(F)(F)F)n2)cc1` [Compound 1102], the EC50 was 0.01 to 10 nM.
`COC(=O)[C@H](CNC(=O)C(=O)N[C@H](C)C1CCCCC1)NC(=O)c1ccc(Nc2nc(NC3(c4ccc(Cl)cc4)CC3)nc(OCC(F)(F)F)n2)cc1` [Compound 1455] gave an EC50 of 0.01 to 10 nM.
Work on `CNC(=O)C(=O)NCC[C@H](NC(=O)c1ccc(Nc2nc(NC3(c4ccc(Cl)cc4)CC3)nc(OCC(F)(F)F)n2)cc1)C(=O)O` [Compound 1014, (S)-2-(4-(4-(1-(4-chlorophenyl)cyclopropylamino)-6-(2,2,2-trifluoroethoxy)-1,3,5-triazin-2-ylamino)benzamido)-4-(2-(methylamino)-2-oxoacetamido)butanoic acid] yielded an EC50 of 0.01 to 10 nM.

Same assay, conditions: Hepatitis C virus, Huh-7, 48 h, read-out: Activity (EC50 class), HCV pseudoparticles, Huh7 cells, luciferase 2 days after infection; average of duplicates
`Cc1ccc(NC(=O)C(=O)NCC(C)(C)CNC(=O)c2ccc(Nc3nc(NC4(c5ccc(Cl)cc5)CC4)nc(OCC(F)(F)F)n3)cc2F)c(Cl)c1` [Compound 3664] was tested, and the EC50 was 0.01 to 10 nM.
Compound `O=C(NCC[C@H](NC(=O)c1ccc(Nc2nc(NC3(c4ccc(Cl)cc4)CC3)nc(OCC(F)(F)F)n2)cc1)C(=O)O)C(=O)Nc1cccc(Cc2ccccc2)c1` [Compound 3639] has an EC50 of 0.01 to 10 nM.
Compound `Cc1nc(-c2cccc(NC(=O)C(=O)NC[C@H](NC(=O)c3ccc(Nc4nc(NC5(c6ccc(Cl)cc6)CC5)nc(OCC(F)(F)F)n4)cc3)C(=O)O)c2)cs1` [Compound 3773] has an EC50 of 0.01 to 10 nM.
Work on `O=C(NCC[C@H](NC(=O)c1ccc(Nc2nc(NC3(c4ccc(Cl)cc4)CC3)nc(OCC(F)(F)F)n2)cc1)C(=O)O)C(=O)Nc1cccc(C(=O)c2ccccc2)c1` [Compound 3618] yielded an EC50 of 0.01 to 10 nM.

Same assay, conditions: Hepatitis C virus, Huh-7, read-out: Activity (EC50 class), HCV pseudoparticles (genotype 1a, H77C) in Huh7 cells; EC50 expressed as class A/B
Work on `CC(C)(CNC(=O)C(N)=O)CNC(=O)c1ccc(Nc2nc(NC3(c4ccc(Cl)cc4)CC3)nc(OCC(F)(F)F)n2)cc1F` [Compound 3388, N^1-(3-(4-((4-((1-(4-chlorophenyl)cyclopropyl)amino)-6-(2,2,2-trifluoroethoxy)-1,3,5-triazin-2-yl)amino)-2-fluorobenzamido)-2,2-dimethylpropyl)oxalamide] yielded an EC50 of 0.01 to 10 nM.
With `CC(C)c1ccc(NC(=O)C(=O)NC[C@H](NC(=O)c2ccc(Nc3nc(NC4(c5ccc(Cl)cc5)CC4)nc(OCC(F)(F)F)n3)cc2)C(=O)O)cc1` [Compound 3295] the EC50 was 0.01 to 10 nM.
`COC(=O)[C@H](CNC(=O)C(=O)Nc1ccc(Oc2cccnc2)cc1)NC(=O)c1ccc(Nc2nc(NC3(c4ccc(Cl)cc4)CC3)nc(OCC(F)(F)F)n2)cc1` [Compound 3207] showed an EC50 of 0.01 to 10 nM.
`CC(C)(CNC(=O)C(=O)Nc1ccc(/C=C/c2ccccc2)cc1)CNC(=O)c1ccc(Nc2nc(NC3(c4ccc(Cl)cc4)CC3)nc(OCC(F)(F)F)n2)cc1` [Compound 3143] was tested, and the EC50 was 0.01 to 10 nM.
`CC(C)(CNC(=O)C(=O)Nc1ccc(OC(F)(F)F)cc1)CNC(=O)c1ccc(Nc2nc(NC3(c4ccc(Cl)cc4)CC3)nc(OCC(F)(F)F)n2)cc1` [Compound 3145] showed an EC50 of 0.01 to 10 nM.
`O=C(NCC[C@@H](NC(=O)c1ccc(Nc2nc(NC3(c4ccc(Cl)cc4)CC3)nc(OCC(F)(F)F)n2)cc1)C(=O)O)C(=O)Nc1cc(F)c(F)c(F)c1F` [Compound 3051] showed an EC50 of 0.01 to 10 nM.
In the case of `Cn1ccnc1NC(=O)C(=O)NCC(C)(C)CNC(=O)c1ccc(Nc2nc(NC3(c4ccc(Cl)cc4)CC3)nc(OCC(F)(F)F)n2)cc1` [Compound 3379], the EC50 is reported as 0.01 to 10 nM.
Work on `Cc1ccc(NC(=O)C(=O)N(CCO)CCCNC(=O)c2ccc(Nc3nc(NC4(c5ccc(Cl)cc5)CC4)nc(OCC(F)(F)F)n3)cc2)cc1` [Compound 3501] yielded an EC50 of 0.01 to 10 nM.
`O=C(NCCCCNC(=O)c1ccc(Nc2nc(NC3(c4ccc(Cl)cc4)CC3)nc(OCC(F)(F)F)n2)cc1)C(=O)Nc1cc(F)cc(F)c1` [Compound 3396] showed an EC50 of 0.01 to 10 nM.
`CC(C)(CNC(=O)c1ccc(Nc2nc(NC3(c4ccc(Cl)cc4)CC3)nc(OCC(F)(F)F)n2)cc1)NC(=O)C(=O)Nc1cccc(F)c1` [Compound 3421] was tested, and the EC50 was 0.01 to 10 nM.
Work on `COC(=O)[C@H](CCNC(=O)C(=O)Nc1ccc(N2CC(C)OC(C)C2)cc1)NC(=O)c1ccc(Nc2nc(NC3(c4ccc(Cl)cc4)CC3)nc(OCC(F)(F)F)n2)cc1` (stereo partly shown) [Compound 3121] yielded an EC50 of 0.01 to 10 nM.
Compound `CC(C)(CNC(=O)C(=O)Nc1ccc(/C=C/c2ccccc2)cc1)CNC(=O)c1ccc(Nc2nc(NC3(c4ccc(Cl)cc4)CC3)nc(OCC(F)(F)F)n2)cc1F` [Compound 3564] has an EC50 of 0.01 to 10 nM.
For `O=C(NCCCNC(=O)c1ccc(Nc2nc(NC3(c4ccc(Cl)cc4)CC3)nc(OCC(F)(F)F)n2)cc1)C(=O)Nc1cccc(F)c1` [Compound 3349], the EC50 was 0.01 to 10 nM.
`O=C(Nc1ccc(F)cc1F)C(=O)N(CCO)CCCNC(=O)c1ccc(Nc2nc(NC3(c4ccc(Cl)cc4)CC3)nc(OCC(F)(F)F)n2)cc1` [Compound 3503] showed an EC50 of 0.01 to 10 nM.
Compound `COCc1ccc(NC(=O)C(=O)NC[C@H](NC(=O)c2ccc(Nc3nc(NC4(c5ccc(Cl)cc5)CC4)nc(OCC(F)(F)F)n3)cc2)C(=O)O)cc1` [Compound 3288] has an EC50 of 0.01 to 10 nM.
